Experiments:
Type in all cases: cell-based
[1] = target: T1, Orexin/Hypocretin receptor type 1 (Homo sapiens, UniProt O43613); assay: Displacement of […]5IBOM from OX1R (unknown origin) transfected in CHO cells assessed as inhibition constant incubated for 1.5 hrs by automated gamma-counter analysis
T1 sequence (O43613 whole entry): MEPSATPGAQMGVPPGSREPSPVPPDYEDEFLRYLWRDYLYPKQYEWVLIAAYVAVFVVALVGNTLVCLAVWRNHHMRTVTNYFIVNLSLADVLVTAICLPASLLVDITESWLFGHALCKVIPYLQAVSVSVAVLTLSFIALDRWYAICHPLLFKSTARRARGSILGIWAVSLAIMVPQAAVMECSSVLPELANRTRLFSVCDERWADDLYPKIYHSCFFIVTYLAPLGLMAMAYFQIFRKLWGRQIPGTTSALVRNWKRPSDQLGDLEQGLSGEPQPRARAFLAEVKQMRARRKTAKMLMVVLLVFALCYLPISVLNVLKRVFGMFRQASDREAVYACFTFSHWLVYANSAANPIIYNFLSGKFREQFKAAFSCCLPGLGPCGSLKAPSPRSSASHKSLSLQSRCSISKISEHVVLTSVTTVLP

[2] = Selectivity ratio of Ki for OX2R (unknown origin) transfected in CHO cells to Ki for OX1R (unknown origin) transfected in CHO cells
Orexin receptor type 2 = target: T2, Orexin receptor type 2 (Homo sapiens, UniProt O43614); assay: Displacement of […]5IBOM from OX2R (unknown origin) transfected in CHO cells assessed as inhibition constant incubated for 1.5 hrs by automated gamma-counter analysis
T2 sequence (O43614 whole entry): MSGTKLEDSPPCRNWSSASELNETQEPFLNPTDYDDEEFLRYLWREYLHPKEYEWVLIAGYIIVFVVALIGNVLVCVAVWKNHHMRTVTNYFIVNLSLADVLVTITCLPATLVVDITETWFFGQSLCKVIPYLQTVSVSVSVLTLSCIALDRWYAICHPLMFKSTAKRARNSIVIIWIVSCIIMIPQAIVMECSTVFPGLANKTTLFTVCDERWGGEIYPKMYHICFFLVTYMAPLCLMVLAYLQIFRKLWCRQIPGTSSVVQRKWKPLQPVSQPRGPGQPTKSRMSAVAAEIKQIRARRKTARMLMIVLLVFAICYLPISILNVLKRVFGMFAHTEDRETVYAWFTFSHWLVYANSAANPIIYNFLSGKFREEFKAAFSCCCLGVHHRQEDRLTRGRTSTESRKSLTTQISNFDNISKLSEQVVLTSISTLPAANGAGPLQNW

Ki [1] [nM]	Ki (Orexin receptor type 2) [nM]	Structure (SMILES)	Ratio Ki [2]
2.35	8.64	Cc1ccc(-n2nccn2)c(C(=O)N2CCCN(c3nc4cc(F)ccc4o3)C[C@@H]2C)c1	3.68
2.33	62.8	C[C@H]1CN(c2nc3ccccc3s2)CCCN1C(=O)c1cc(F)ccc1-n1nccn1	26.9

Reference: ChEMBL document CHEMBL6120977, “Structure-Affinity-Pharmacokinetics Relationships of Novel 18F-Labeled 1,4-Diazepane Derivatives for Orexin 1 Receptor Imaging” (J Med Chem, 2024)
